The source of these data is ChEMBL document CHEMBL1127914, “Pseudopeptide inhibitors of aminopeptidases containing the [CH(CN)NH] surrogate as a transition-state MIMIC” (Bioorg Med Chem Lett, 1994).

Residues, ends and D or L forms follow the SMILES beside them.

Experiment [1] concerns the target T1, Aminopeptidase B (Mus musculus, UniProt Q8VCT3).
T1 sequence (Q8VCT3 whole entry): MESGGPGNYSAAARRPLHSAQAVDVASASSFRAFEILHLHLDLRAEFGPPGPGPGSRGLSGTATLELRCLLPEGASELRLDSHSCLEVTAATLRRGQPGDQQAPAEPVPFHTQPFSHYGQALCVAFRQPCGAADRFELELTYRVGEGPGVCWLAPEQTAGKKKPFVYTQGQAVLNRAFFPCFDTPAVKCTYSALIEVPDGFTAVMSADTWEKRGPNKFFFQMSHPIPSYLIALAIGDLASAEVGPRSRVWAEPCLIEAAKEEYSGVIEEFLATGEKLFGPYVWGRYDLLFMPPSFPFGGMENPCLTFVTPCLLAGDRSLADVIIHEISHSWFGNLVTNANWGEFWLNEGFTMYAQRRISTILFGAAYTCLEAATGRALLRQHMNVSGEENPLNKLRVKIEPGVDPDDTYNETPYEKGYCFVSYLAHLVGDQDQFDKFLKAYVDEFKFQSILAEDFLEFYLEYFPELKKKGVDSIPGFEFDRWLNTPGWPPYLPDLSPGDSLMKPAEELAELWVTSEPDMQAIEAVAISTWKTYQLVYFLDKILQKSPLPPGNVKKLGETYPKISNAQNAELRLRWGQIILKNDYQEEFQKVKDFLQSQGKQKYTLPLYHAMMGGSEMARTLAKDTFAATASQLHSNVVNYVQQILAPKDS
The experiment is described as follows: Inhibition of Aminopeptidase B in murine L-cells by Aoyagi method.

The target in experiment [2] is T2, Aminopeptidase N (Homo sapiens, UniProt P15144). The experiment is described as follows: Inhibition of Aminopeptidase M.
T2 sequence (P15144 whole entry): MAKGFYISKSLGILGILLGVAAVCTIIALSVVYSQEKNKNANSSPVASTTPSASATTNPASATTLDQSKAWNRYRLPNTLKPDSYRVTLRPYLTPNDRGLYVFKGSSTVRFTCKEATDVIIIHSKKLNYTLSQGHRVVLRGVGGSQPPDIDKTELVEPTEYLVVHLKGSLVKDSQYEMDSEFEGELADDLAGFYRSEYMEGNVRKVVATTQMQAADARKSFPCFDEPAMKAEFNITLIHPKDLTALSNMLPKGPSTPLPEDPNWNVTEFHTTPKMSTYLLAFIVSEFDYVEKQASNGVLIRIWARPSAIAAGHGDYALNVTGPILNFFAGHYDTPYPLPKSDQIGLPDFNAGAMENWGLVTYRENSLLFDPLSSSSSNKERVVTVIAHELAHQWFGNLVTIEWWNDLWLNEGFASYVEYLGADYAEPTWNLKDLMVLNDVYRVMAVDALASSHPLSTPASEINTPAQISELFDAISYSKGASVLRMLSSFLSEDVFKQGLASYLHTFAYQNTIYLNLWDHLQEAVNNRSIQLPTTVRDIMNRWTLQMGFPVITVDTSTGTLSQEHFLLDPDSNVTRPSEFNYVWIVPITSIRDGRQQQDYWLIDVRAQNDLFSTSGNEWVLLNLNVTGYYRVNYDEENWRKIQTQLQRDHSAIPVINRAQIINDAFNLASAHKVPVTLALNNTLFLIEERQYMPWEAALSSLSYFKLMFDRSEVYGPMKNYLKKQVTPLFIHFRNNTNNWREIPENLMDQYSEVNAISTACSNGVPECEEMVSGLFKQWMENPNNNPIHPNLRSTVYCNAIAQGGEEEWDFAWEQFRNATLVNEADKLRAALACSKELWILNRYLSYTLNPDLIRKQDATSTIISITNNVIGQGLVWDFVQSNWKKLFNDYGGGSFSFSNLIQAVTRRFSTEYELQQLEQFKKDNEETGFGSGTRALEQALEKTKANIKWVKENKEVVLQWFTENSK
The target of experiment [3] is T1, Aminopeptidase B. The experiment is described as follows: Concentration required for inhibitory potency against Aminopeptidase B in murine L-cells by aoyagi method using L-lysine-2-naphthylamide hydrochloride as substrate (0.5mM, Km=0.9*10e-4 M).
Experiment [4] has as its target T2, Aminopeptidase N. The experiment is described as follows: Concentration required for inhibitory potency on Aminopeptidase M using L-leucine-2-naphthylamide hydrochloride as substrate(0.5 mM, Km=0.6*10e-4 M).

Regarding `COC(=O)[C@H](CC(C)C)NC(C#N)[C@@H](N)Cc1ccccc1` (some centres not stated), the IC50 – broadly, the concentration that gives 50% inhibition – at Aminopeptidase B [1] stood at 0.05 mM.

In the case of `COC(=O)[C@H](Cc1ccccc1)N[C@H](C#N)[C@@H](N)Cc1ccccc1`, the IC50 against Aminopeptidase B [1] stood at 0.293 mM.

`COC(=O)[C@@H]1CCCN1C(=O)[C@H](CC(C)C)N[C@@H](C#N)[C@@H](N)Cc1ccccc1` registered an IC50 against Aminopeptidase B [1] of 0.028 mM.

Consider `COC(=O)[C@@H](NC(C#N)[C@H](Cc1ccccc1)NC(=O)OC(C)(C)C)C(C)C` (some centres not stated), for which the IC50 against Aminopeptidase B [1] and against Aminopeptidase N [2] was 1 mM throughout.

The molecule `COC(=O)[C@@H](NC(C#N)[C@@H](N)Cc1ccccc1)C(C)C` (some centres not stated) registered an IC50 at Aminopeptidase B [1] of 0.036 mM.

On Aminopeptidase B [1], `COC(=O)[C@H](CCCCN)NC(C#N)[C@@H](N)Cc1ccccc1` (some centres not stated) displayed an IC50 of 0.044 mM.

At Aminopeptidase B [1], `COC(=O)[C@H](Cc1ccccc1)N[C@@H](C#N)[C@@H](N)Cc1ccccc1` registered an IC50 of 0.221 mM.

Regarding `CC(C)C[C@H](NC(=O)[C@@H](N)Cc1ccccc1)C(=O)O` (H-Phe-Leu-OH), the IC50 on Aminopeptidase B [1] and against Aminopeptidase N [2] was 1 mM each time.

As to `COC(=O)[C@@H]1CCCN1C(=O)[C@H](CC(C)C)NC(=O)[C@@H](N)Cc1ccccc1` (H-Phe-Leu-Pro-OMe), the IC50 was determined as 0.824 mM at Aminopeptidase B [1] and 0.793 mM on Aminopeptidase N [2].

In the case of `COC(=O)[C@H](CC(C)C)NC(C#N)[C@H](Cc1ccccc1)NC(=O)OC(C)(C)C` (mixture of isomers), the IC50 against Aminopeptidase B [1] and on Aminopeptidase N [2] was 1 mM in each case.

With `COC(=O)[C@H](CCCCN)NC(C#N)[C@H](Cc1ccccc1)NC(=O)OC(C)(C)C` (mixture of isomers), the IC50 against Aminopeptidase B [1] and on Aminopeptidase N [2] was 1 mM throughout.

`COC(=O)C1CCCN1C(=O)[C@H](CC(C)C)NC(C(N)=O)[C@@H](N)Cc1ccccc1` (single isomer, unassigned) [listing 1 of 2 here]: the IC50 at Aminopeptidase B [1] and on Aminopeptidase N [2] was 1 mM in each case.

Turning to `COC(=O)C1CCCN1C(=O)[C@H](CC(C)C)NC(C(N)=O)[C@@H](N)Cc1ccccc1` (single isomer, unassigned) [listing 2 of 2 here], the IC50 was found to be 1 mM on Aminopeptidase B [3] and 783 µM on Aminopeptidase N [4].

Turning to `COC(=O)[C@H](CC(C)C)NC(C(N)=O)[C@@H](N)Cc1ccccc1` (single isomer, unassigned), the IC50 on Aminopeptidase B [1] and against Aminopeptidase N [2] was 1 mM each time.

With `COC(=O)C1CCCN1C(=O)[C@H](CC(C)C)NC(C#N)[C@@H](N)Cc1ccccc1` (single isomer, unassigned), at Aminopeptidase B [1], the IC50 was 0.014 mM.

Regarding `COC(=O)C1CCCN1C(=O)[C@H](CC(C)C)NC(C#N)[C@H](Cc1ccccc1)NC(=O)OC(C)(C)C` (single isomer, unassigned; form 1), the IC50 against Aminopeptidase B [1] and on Aminopeptidase N [2] was 1 mM throughout.

As to `COC(=O)[C@H](Cc1ccccc1)NC(C#N)[C@H](Cc1ccccc1)NC(=O)OC(C)(C)C` (single isomer, unassigned; form 1), the IC50 against Aminopeptidase B [1] and on Aminopeptidase N [2] was 1 mM in each case.

Take `COC(=O)C1CCCN1C(=O)[C@H](CC(C)C)NC(C#N)[C@H](Cc1ccccc1)NC(=O)OC(C)(C)C` (single isomer, unassigned; form 2): the IC50 at Aminopeptidase B [1] and against Aminopeptidase N [2] was 1 mM throughout.

For the molecule `COC(=O)[C@H](Cc1ccccc1)NC(C#N)[C@H](Cc1ccccc1)NC(=O)OC(C)(C)C` (single isomer, unassigned; form 2), the IC50 against Aminopeptidase B [1] and against Aminopeptidase N [2] was 1 mM each time.

For the molecule `CC(C)C[C@H](NC(=O)[C@@H](O)[C@H](N)Cc1ccccc1)C(=O)O` [UBENIMEX], the IC50 against Aminopeptidase B [1] came to 0.006 mM.
